In patent publication US9790174B2, “Kinase inhibitors” (Respivert Limited, priority 2013, dated 2017):

Legend:
B-Raf = B-Raf (Homo sapiens (Human), UniProt P15056); assay: KINOMEscan binding of kinase to standard ligand
Description: (§1) Kinase enzyme binding activities of compounds disclosed herein may be determined using a proprietary assay which measures active site-directed competition binding to an immobilized ligand (Fabian, M. A. et al., Nature Biotechnol., 2005, 23:329-336). These assays may be conducted by DiscoverX (formerly Ambit; San Diego, Calif.). The percentage inhibition produced by incubation with a test compound may be calculated relative to the non-inhibited control.

B-Raf (V600E) = B-Raf (V600E) (Homo sapiens (Human), UniProt P15056, V600E); assay: KINOMEscan binding of kinase to standard ligand
Chain of B-Raf (V600E) (P15056 whole entry V600E): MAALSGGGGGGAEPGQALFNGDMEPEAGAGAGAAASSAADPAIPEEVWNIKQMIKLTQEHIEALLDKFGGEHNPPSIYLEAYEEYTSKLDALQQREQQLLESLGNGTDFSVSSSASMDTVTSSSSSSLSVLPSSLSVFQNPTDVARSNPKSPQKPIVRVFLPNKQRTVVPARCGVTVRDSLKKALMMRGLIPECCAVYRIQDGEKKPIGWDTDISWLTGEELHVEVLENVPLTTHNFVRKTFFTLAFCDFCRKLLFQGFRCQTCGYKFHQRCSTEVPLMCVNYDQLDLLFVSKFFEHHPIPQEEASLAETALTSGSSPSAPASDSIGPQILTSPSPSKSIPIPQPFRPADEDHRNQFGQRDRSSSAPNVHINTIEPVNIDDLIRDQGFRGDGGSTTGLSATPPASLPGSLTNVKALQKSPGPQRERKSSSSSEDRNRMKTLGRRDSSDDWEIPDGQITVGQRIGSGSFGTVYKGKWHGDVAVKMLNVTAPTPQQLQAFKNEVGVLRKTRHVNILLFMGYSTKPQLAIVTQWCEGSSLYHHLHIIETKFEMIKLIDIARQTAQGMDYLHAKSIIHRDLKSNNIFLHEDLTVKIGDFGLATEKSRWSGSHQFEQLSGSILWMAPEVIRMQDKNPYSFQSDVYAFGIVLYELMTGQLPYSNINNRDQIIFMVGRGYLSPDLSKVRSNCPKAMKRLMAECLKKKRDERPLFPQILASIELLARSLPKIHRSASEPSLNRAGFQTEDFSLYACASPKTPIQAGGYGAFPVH
Description: as §1

non-mutant kinases = assay: KinomeScan selectivity scores; type: binding; settings: for number of individual kinase hits S(1): % Ctrl <1; for number of individual kinase hits S(10): % Ctrl <10; for number of individual kinase hits S(35): % Ctrl <35; for selectivity compared to the Reference Compound: evidenced by lower selectivity scores
Description: These assays may be conducted by DiscoverX (formerly Ambit; San Diego, Calif.). The percentage inhibition produced by incubation with a test compound may be calculated relative to the non-inhibited control.

TNBS-induced colitis = TNBS-induced colitis in mice; type: in vivo, BDF1 mice; settings: conducted over 2 days; oral
Description: Non-fasted, 10-12 week old, male BDF1 mice are dosed by oral gavage twice daily with either vehicle (5 mL/kg), reference item (Budesonide 2.5 mg/kg) or test compound (1 or 5 mg/kg) one day before (Day −1) stimulation of the inflammatory response by treatment with 2,4,6-trinitrobenzenesulphonic acid (TNBS) (15 mg/mL in 50% ethanol/50% saline). On Day 0 of the study TNBS (200 μL) is administered intra-colonically via a plastic catheter with BID dosing of the vehicle, reference or test compound continuing for 2 or 4 days. During the study, animals are weighed every day and stool observations are made and recorded as a score, based on stool consistency. At the time of sacrifice on Day 2 (or Day 4), the large intestine is removed and the length and weight recorded. Sections of the colon are taken for histopathology scoring to determine disease severity.

[1] = tested on: adoptive transfer colitis; assay: Adoptive transfer in mice; type: in vivo, SCID mice; settings: for % Inhibition: colon weight:length, induction window between naïve and vehicle animals; for levels of pro-inflammatory cytokines in samples of colon tissue: adoptive transfer model
Description: On Study day 0, female Balb/C mice are terminated and spleens obtained for CD45RB^high cell isolation (Using SCID IBD cell Separation protocol). Approximately 4×10^5 cells/mL CD45RB^high cells are then injected intraperitoneally (100 μL/mouse) into female SCID animals. On study day 14, mice are weighed and randomized into treatment groups based on body weight. On Day 14, compounds are administered BID, via oral gavage, in a peanut oil vehicle at the dose levels outlined below in Tables 6a and 6b and a dose volume of 5 mL/kg. Treatment continues until study day 42, at which point the animals are necropsied 4 hours after the morning administration. The colon length and weight are recorded and used as a secondary endpoint in the study as a measurement of colon oedema. The colon is then divided into six cross-sections, four of which are used for histopathology scoring (primary endpoint) and two are homogenised for cytokine analysis. Data shown is the % inhibition of the induction window between nave animals and vehicle animals, where higher inhibition implies closer to the non-diseased, nave, phenotype.

[2] = tested on: intestinal mucosa biopsies from ulcerative colitis patients; assay: Human biopsy assay (cytokine release from intestinal mucosa biopsies); type: cell-based; settings: 1 μg/mL, 24 hours
Description: Intestinal mucosa biopsies are obtained from the inflamed regions of the colons of IBD patients. The biopsy material is cut into small pieces (2-3 mm) and placed on steel grids in an organ culture chamber at 37° C. in a 5% CO2/95% O2 atmosphere in serum-free media. DMSO control or test compounds at the desired concentration are added to the tissue and incubated for 24 hr in the organ culture chamber. The supernatant is harvested for determination of IL-6, IL-8, IL-1β and TNFα levels by R&D ELISA.

[3] = tested on: endotoxin-induced uveitis; assay: Endotoxin-induced uveitis in rats; type: in vivo, Lewis rats; settings: rats treated with intravitreal endotoxin LPS
Description: Male, Lewis rats (6-8 weeks old, Charles River UK Limited) are housed in cages of 3 at 19-21° C. with a 12 h light/dark cycle (07:00/19:00) and fed a standard diet of rodent chow and water ad libitum. Non-fasted rats are weighed, individually identified on the tail with a permanent marker, and receive a single intravitreal administration into the right vitreous humor (5 μL dose volume) of 100 ng/animal of LPS (Escherichia coli 0111:B4 prepared in PBS, Sigma Aldrich, UK) using a 32-gauge needle. Untreated rats are injected with PBS. […] Following euthanasia, the right eye of each animal is enucleated and dissected into front (anterior) and back (posterior) sections around the lens. Each section is weighed and homogenised in 500 μL of sterile phosphate buffered saline followed by 20 minutes centrifugation at 12000 rpm at 4° C.

[4] = tested on: Salmonella typhimurium, strains TA98 and TA100; assay: Mutagenicity assessment (bacterial reverse mutation screen); type: cell-based; settings: TA98 and TA100, presence or absence of S-9 mix
Description: Studies were conducted by Sequani (Ledbury, Herefordshire, UK) to assess compounds of the invention for their ability to induce mutations in two histidine dependent auxotrophic mutants of Salmonella typhimurium, strains TA98 and TA100 in vitro.
The mutation screen was conducted using the plate incorporation method and was performed in both the presence and absence of S-9 mix (a liver post-mitochondrial fraction derived from the livers of Aroclor 1254 treated rats). The bacteria were exposed to test compounds dissolved in dimethylsulphoxide, which solvent was also used as the negative control. The dose levels used were 0.32, 1.6, 8, 40, 200, 1000 or 5000 μg/plate.

Chain of B-Raf (P15056 whole entry): as the sequence (P15056 whole entry V600E) above, with E600V counted along it

SMILES	effect on the binding of B-Raf to its standard ligand (B-Raf)	effect on the binding of B-Raf (V600E) to its standard ligand (B-Raf (V600E))	activity in TNBS model of colonic inflammation (histopathology analysis) (TNBS-induced colitis)	cytokine levels in anterior and posterior segments of the eyes [3]	increases in revertant colonies [4]	further results
COCCOCCOCCNC(=O)c1cc(Nc2cc(Oc3ccc(NC(=O)Nc4cc(C(C)(C)C)cc(NS(C)(=O)=O)c4OC)c4ccccc34)ccn2)cc(OC)c1 [Example 3, 3-((4-((4-(3-(5-(tert-Butyl)-2-methoxy-3-(methylsulfonamido)phenyl)ureido)naphthalen-1-yl)oxy)pyridin-2-yl)amino)-5-methoxy-N-(2-(2-(2-methoxyethoxy)ethoxy)ethyl)benzamide]	did not have any significant effect	did not have any significant effect	displayed substantial activity			number of individual kinase hits S(1) (non-mutant kinases; 50 nM): 0; number of individual kinase hits S(10) (non-mutant kinases; 50 nM): 9; number of individual kinase hits S(35) (non-mutant kinases; 50 nM): 36; number of individual kinase hits S(1) (non-mutant kinases; 500 nM): 18; number of individual kinase hits S(10) (non-mutant kinases; 500 nM): 59; number of individual kinase hits S(35) (non-mutant kinases; 500 nM): 93; selectivity compared to the Reference Compound (non-mutant kinases): substantially improved selectivities; activity in T cell driven model of colonic inflammation (ratios of colon weight to length) ([1]; adoptive transfer): displayed significant activity
COCCOCCOCCOc1cc(Nc2nccc(Oc3ccc(NC(=O)Nc4cc(C(C)(C)C)cc(NS(C)(=O)=O)c4OC)c4ccccc34)n2)cc(OC)c1 [Example 4, N-(5-(tert-Butyl)-2-methoxy-3-(3-(4-((2-((3-methoxy-5-(2-(2-(2-methoxyethoxy)ethoxy)-ethoxy)phenyl)amino)pyrimidin-4-yl)oxy)naphthalen-1-yl)ureido)phenyl)methanesulfonamide]	did not have any significant effect	did not have any significant effect	displayed substantial activity	significantly reduced cytokine levels	no dose-related or statistically significant increases in revertant colonies	cytokine (IL-1β, IL-6 and IL-8) release compared to the DMSO control [2]: significantly inhibited; % Inhibition ([1]; 0.3 mg/kg BID oral gavage): 62%; % Inhibition ([1]; 1 mg/kg BID oral gavage): 110%; levels of pro-inflammatory cytokines in samples of colon tissue [1]: significantly reduced levels of pro-inflammatory cytokines
COc1cc(Nc2cc(Oc3ccc(NC(=O)Nc4cc(C(C)(C)C)cc(NS(C)(=O)=O)c4OC)c4ccccc34)ccn2)cc(C(=O)NCCN2CCOCC2)c1 [Example 27, 3-((4-((4-(3-(5-(tert-Butyl)-2-methoxy-3-(methylsulfonamido)phenyl)ureido)naphthalen-1-yl)oxy)pyridin-2-yl)amino)-5-methoxy-N-(2-morpholinoethyl)benzamide]	did not have any significant effect	did not have any significant effect	displayed substantial activity	significantly reduced cytokine levels	no dose-related or statistically significant increases in revertant colonies	cytokine (IL-1β, IL-6 and IL-8) release compared to the DMSO control [2]: significantly inhibited; % Inhibition ([1]; 3 mg/kg BID oral gavage): 99%; levels of pro-inflammatory cytokines in samples of colon tissue [1]: significantly reduced levels of pro-inflammatory cytokines
CNC(=O)c1cc(C(C)(C)C)cc(NC(=O)Nc2ccc(Oc3ccnc(Nc4cc(OC)cc(OCCOCCOCCOC)c4)c3)c3ccccc23)c1OC [Example 29, 5-(tert-Butyl)-2-methoxy-3-(3-(4-((2-((3-methoxy-5-(2-(2-(2-methoxyethoxy)ethoxy)-ethoxy)phenyl)amino)pyridin-4-yl)oxy)naphthalen-1-yl)ureido)-N-methylbenzamide]				significantly reduced cytokine levels		
COCCOCCOCCOc1cc(Nc2cc(Oc3ccc(NC(=O)Nc4cc(C(C)(C)C)cc(C(N)=O)c4OC)c4ccccc34)ccn2)cc(OC)c1 [Example 34, 5-(tert-Butyl)-2-methoxy-3-(3-(4-((2-((3-methoxy-5-(2-(2-(2-methoxyethoxy)ethoxy)ethoxy)phenyl)amino)pyridin-4-yl)oxy)naphthalen-1-yl)ureido)benzamide]			displayed substantial activity			
COc1cc(Nc2cc(Oc3ccc(NC(=O)Nc4cc(C(C)(C)C)cc(NS(C)(=O)=O)c4OC)c4ccccc34)ccn2)cc(C(=O)NCCCN2CCOCC2)c1 [Example 66, 3-((4-((4-(3-(5-(tert-Butyl)-2-methoxy-3-(methylsulfonamido)phenyl)ureido)naphthalen-1-yl)oxy)pyridin-2-yl)amino)-5-methoxy-N-(3-morpholinopropyl)benzamide]				significantly reduced cytokine levels		
COc1c(NC(=O)Nc2ccc(Oc3ccnc(Nc4ccccc4)c3)c3ccccc23)cc(C(C)(C)C)cc1C(=O)NC1COC1 [Example 75, 5-(tert-Butyl)-2-methoxy-N-(oxetan-3-yl)-3-(3-(4-((2-(phenylamino)pyridin-4-yl)oxy)-naphthalen-1-yl)ureido)benzamide]	did not have any significant effect	did not have any significant effect	displayed substantial activity	significantly reduced cytokine levels	no dose-related or statistically significant increases in revertant colonies	number of individual kinase hits S(1) (non-mutant kinases; 50 nM): 2; number of individual kinase hits S(10) (non-mutant kinases; 50 nM): 14; number of individual kinase hits S(35) (non-mutant kinases; 50 nM): 39; number of individual kinase hits S(1) (non-mutant kinases; 500 nM): 15; number of individual kinase hits S(10) (non-mutant kinases; 500 nM): 55; number of individual kinase hits S(35) (non-mutant kinases; 500 nM): 91; selectivity compared to the Reference Compound (non-mutant kinases): substantially improved selectivities
COc1cc(Nc2cc(Oc3ccc(NC(=O)Nc4cc(C(C)(C)C)cc(NS(C)(=O)=O)c4OC)c4ccccc34)ccn2)cc(C(=O)NCCN2CCN(C)CC2)c1 [Example 79, 3-((4-((4-(3-(5-(tert-Butyl)-2-methoxy-3-(methylsulfonamido)phenyl)ureido)naphthalen-1-yl)oxy)pyridin-2-yl)amino)-5-methoxy-N-(2-(4-methylpiperazin-1-yl)ethyl)benzamide]			displayed substantial activity			
